Laboratory results from patent EP4603105A1, “PHARMACEUTICAL COMPOSITION CONTAINING CYCLIC COMPOUND HAVING SELECTIVE KRAS INHIBITORY EFFECT AGAINST HRAS AND NRAS” (CHUGAI SEIYAKU KABUSHIKI KAISHA, priority 2022, dated 2024).
Where a SMILES comes first, the peptide text is derived from it. Bridges are numbered along the chain shown (N, C = ends). [ ]: non-standard residue; d: D form. The star is where a group is joined. hPhe(3-Cl-4-CF3) = N[C@@H](CCc1ccc(C(F)(F)F)c(Cl)c1)C(=O)O; NPrPhe(4-CF3) = CCCN[C@@H](Cc1ccc(C(F)(F)F)cc1)C(=O)O; NEtPhe(4-CF3) = CCN[C@@H](Cc1ccc(C(F)(F)F)cc1)C(=O)O; NMePhe(4-Me) = CN[C@@H](Cc1ccc(C)cc1)C(=O)O; NMeGly(cPent) = CN[C@H](C(=O)O)C1CCCC1; NMeD = CN[C@@H](CC(=O)O)C(=O)O; NMeL = CN[C@@H](CC(C)C)C(=O)O; Morpholide = C1CN(*)CCO1; NMeA = CN[C@@H](C)C(=O)O; Ac5c = NC1(C(=O)O)CCCC1; Aze = O=C(O)[C@@H]1CCN1; Sar = CNCC(=O)O

What was measured:
HRAS wild-type protein = HRAS wild-type protein (Homo sapiens, UniProt P01112); assay: Binding to HRAS by surface plasmon resonance (SPR), KD and KD ratio to KRAS
Protocol: (§1) Surface plasmon resonance was used to analyze the binding affinity of compounds for KRAS, NRAS, and HRAS. The apparatus used was Biacore 8K, 8K+, or T200 (GE Healthcare), and the running buffer used was HBS (10 mM HEPES-NaOH, 150 mM NaCl, pH 7.4) containing 1 mM DTT, 10 mM MgCl2, 0.01% Tween 20, 10 µM GDP, and 4% DMSO.
(§2) Biotinylated Avi-tag fusion KRAS, NRAS, and HRAS proteins were expressed in E. coli BL21 (DE3) strains, and after cells were homogenized, they were purified using Streptavidin Mutein Matrix and Superdex 75. After purification, GDP-loaded KRAS, NRAS, and HRAS proteins were immobilized on the surface of Sensor Chip CAP (Cytiva) coated with Biotin CAPture Reagent in an immobilization amount of about 100 to 300 RU. Binding of each compound was evaluated by the Single Cycle Kinetics method, and a running buffer or a compound solution was added to the RAS protein non-immobilized surface and the immobilized surface to obtain a binding response. The flow rate was set to 100 µL/min, and in the compound-adding cycle, compound solutions having different concentrations were intermittently added for 75 seconds each, starting from a low concentration. […] In the blank cycle, a running buffer was intermittently added and not the compound solution. The Biotin CAPture Reagent and RAS proteins were immobilized for each cycle, and at the end of each cycle, the sensor chip was regenerated by the regeneration solution appended to the Biotin CAPture Kit (Cytiva). Measurement was carried out at 30°C.
(§3) The resulting sensorgram was subjected to curve fitting based on a 1:1 binding model on Biacore Insight Evaluation Software or T200 Evaluation Software, and thereby the dissociation constant KD of each compound with respect to KRAS, NRAS, and HRAS was determined. […] Blank indicates a compound from which the KD value with respect to NRAS or HRAS was not obtained.

[1] = target: GDP-bound NRAS wild-type protein (Homo sapiens, UniProt P01111); assay: Binding to NRAS by surface plasmon resonance (SPR), KD and KD ratio to KRAS; details: ratio of KD for GDP-bound NRAS wild-type protein to KD for KRAS
Protocol: as §1, §2, §3

[2] = test system: human lung cancer strain NCI-H441; format: cell-based
Protocol: A test compound was dispensed into a U-bottom 384-well plate as 40 nL serially diluted dimethyl sulfoxide solutions using a liquid handler Echo (LABCYTE). […] This cell suspension was dispensed in an amount of 40 µL per well into a plate containing the test compound, and cultured at 37°C in a 5% carbon dioxide gas incubator. Four days later, 20 µL of CellTiter-Glo (registered trademark) (Promega) was added to each well and […] was measured. […]

[3] = ratio of KD for HRAS wild-type protein to KD for KRAS

Sequence of HRAS wild-type protein (P01112 whole entry): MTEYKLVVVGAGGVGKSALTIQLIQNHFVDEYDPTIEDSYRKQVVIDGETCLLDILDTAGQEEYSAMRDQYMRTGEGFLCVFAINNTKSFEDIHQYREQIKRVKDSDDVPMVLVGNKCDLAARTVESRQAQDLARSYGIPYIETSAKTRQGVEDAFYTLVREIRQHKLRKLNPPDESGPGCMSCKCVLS
Sequence of GDP-bound NRAS wild-type protein (P01111 whole entry): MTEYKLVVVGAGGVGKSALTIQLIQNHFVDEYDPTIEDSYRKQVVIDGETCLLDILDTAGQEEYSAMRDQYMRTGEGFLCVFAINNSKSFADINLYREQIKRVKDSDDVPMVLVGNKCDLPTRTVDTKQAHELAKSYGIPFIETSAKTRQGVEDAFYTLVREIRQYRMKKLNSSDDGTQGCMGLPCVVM

Row | Compound | IC50 [2] [nM] | also measured
1 | CC[C@H](C)[C@@H]1NC(=O)[C@H](CC(C)C)N(C)C(=O)C[C@@H](C(=O)N2CCOCC2)N(C)C(=O)[C@H](C2CCCC2)N(C)C(=O)C2(CCCC2)NC(=O)[C@@H]2CCCN2C(=O)[C@H](CCc2ccc(C(F)(F)F)c(Cl)c2)NC(=O)CN(C)C(=O)[C@H](Cc2ccc(C)cc2)N(C)C(=O)[C@@H]2CCN2C(=O)[C@H](C)N(C)C1=O [PP0001] ([NMeL]I[NMeA][Aze][NMePhe(4-Me)][Sar][hPhe(3-Cl-4-CF3)]P[Ac5c][NMeGly(cPent)][NMeD]-Morpholide; lactam N-11) | 6.3 | HRAS /KRAS (HRAS wild-type protein; [3]): C (A compound having a KD ratio of 0.1 or more and less than 3 is denoted as C); NRAS /KRAS [1]: C (A compound having a KD ratio of 0.1 or more and less than 3 is denoted as C)
2 | CC[C@H](C)[C@@H]1NC(=O)[C@H](CC(C)C)N(C)C(=O)C[C@@H](C(=O)N2CCOCC2)N(C)C(=O)[C@H](C2CCCC2)N(C)C(=O)C2(CCCC2)NC(=O)[C@@H]2CCCN2C(=O)[C@H](CCc2ccc(C(F)(F)F)c(Cl)c2)NC(=O)CN(C)C(=O)[C@H](Cc2ccc(C(F)(F)F)cc2)N(CC)C(=O)[C@@H]2CCN2C(=O)[C@H](C)N(C)C1=O [PP0002] ([NMeL]I[NMeA][Aze][NEtPhe(4-CF3)][Sar][hPhe(3-Cl-4-CF3)]P[Ac5c][NMeGly(cPent)][NMeD]-Morpholide; lactam N-11) | 2.1 | HRAS /KRAS (HRAS wild-type protein; [3]): C (A compound having a KD ratio of 0.1 or more and less than 3 is denoted as C); NRAS /KRAS [1]: C (A compound having a KD ratio of 0.1 or more and less than 3 is denoted as C)
3 | CCO[C@@H]1C[C@H]2C(=O)NC3(CCC3)C(=O)N(C)[C@@H](C(CC)CC)C(=O)N3CCC[C@@H]3CC(=O)N(C)[C@@H](CC)C(=O)N[C@@H]([C@@H](C)CC)C(=O)N(C)CC(=O)N(C)[C@H]3C/C=C\CCN(C3=O)[C@@H](Cc3ccc(C(F)(F)F)cc3)C(=O)N(C)CC(=O)N[C@@H](CCc3cc(F)c(C(F)(F)F)c(F)c3)C(=O)N2C1 [PP1607] | 39.3 | HRAS /KRAS (HRAS wild-type protein; ratio of KD value for HRAS wild-type protein to KD value for KRAS (SPR)): A (a compound having 10 or more and less than 20 is denoted as A)
4 | CC[C@H](C)[C@@H]1NC(=O)[C@H](CC)N(C)C(=O)C[C@@H](C(=O)N(C)CC)N(C)C(=O)[C@H](C2CCCC2)N(C)C(=O)C2(CC(C)(C)C2)NC(=O)[C@@H]2C[C@@H](C)CN2C(=O)[C@H](CCc2cc(F)c(C(F)(F)F)c(F)c2)NC(=O)CN(C)C(=O)[C@H](Cc2ccc(C)cc2)N2CC/C=C\C[C@@H](C2=O)N(C)C(=O)CN(C)C1=O [PP1884] | 17.3 | –
5 | CC[C@H](C)[C@@H]1NC(=O)[C@H](CC2CC2)N(C)C(=O)C[C@@H](C(=O)N(C)CC)N(C)C(=O)[C@H](C2CCCC2)N(C)C(=O)C2(CCC2)NC(=O)[C@@H]2C[C@H](C)CN2C(=O)[C@H](CCc2ccc(C(F)(F)F)c(OC)c2)NC(=O)CN(C)C(=O)[C@H](Cc2ccc(C)cc2)N2CC/C=C\C[C@@H](C2=O)N(C)C(=O)CN(C)C1=O [PP1897] | 22.6 | –
6 | CC[C@H](C)[C@@H]1NC(=O)[C@H](CC2CC2)N(C)C(=O)C[C@@H](C(=O)N(C)CC)N(C)C(=O)[C@H](C2CCCC2)N(C)C(=O)C2(CCC2)NC(=O)[C@@H]2C[C@@H](C)CN2C(=O)[C@H](CCc2ccc(C(F)(F)F)c(OC)c2)NC(=O)CN(C)C(=O)[C@H](Cc2ccc(C)cc2)N2CC/C=C\C[C@@H](C2=O)N(C)C(=O)CN(C)C1=O [PP1900] | 24.7 | –
7 | CCCN1C(=O)CN(C)C(=O)CN(C)C(=O)[C@H]([C@@H](C)CC)NC(=O)[C@H](CC(C)C)N(C)C(=O)C[C@@H](C(=O)N2CCOCC2)N(C)C(=O)[C@H](C2CCCC2)N(C)C(=O)C2(CCCC2)NC(=O)[C@H](C)NC(=O)[C@H](CCc2ccc(C(F)(F)F)c(Cl)c2)NC(=O)CN(C)C(=O)[C@@H]1Cc1ccc(C(F)(F)F)cc1 [PP1914] ([NMeL]I[Sar][Sar][NPrPhe(4-CF3)][Sar][hPhe(3-Cl-4-CF3)]A[Ac5c][NMeGly(cPent)][NMeD]-Morpholide; lactam N-11) | 39.7 | –
8 | CCO[C@@H]1C[C@H]2C(=O)NC3(CC(C)(C)C3)C(=O)N(C)[C@@H](C3CCCC3)C(=O)N(C)[C@H](C(=O)N(C)CC)CC(=O)N(C)[C@@H](C3CCC3)C(=O)N[C@@H]([C@@H](C)CC)C(=O)N(C)CC(=O)N(C)[C@H]3C/C=C\CCN(C3=O)[C@@H](Cc3ccc(C(F)(F)F)cc3)C(=O)N(C)CC(=O)N[C@@H](CCc3ccc(C(F)(F)F)c(OC)c3)C(=O)N2C1 [PP1985] | 17.7 | HRAS /KRAS (HRAS wild-type protein; ratio of the KD value with respect to HRAS wild-type protein to the KD value with respect to KRAS): B (a compound having 3 or more and less than 10 is denoted as B)
9 | CCCN(C)C(=O)[C@@H]1CC(=O)N(C)[C@@H](COCC)C(=O)N[C@@H]([C@@H](C)CC)C(=O)N(C)CC(=O)N(C)[C@H]2C/C=C\CCN(C2=O)[C@@H](Cc2ccc(C(F)(F)F)cc2)C(=O)N(C)CC(=O)N[C@@H](CCc2cc(F)c(C(F)(F)F)c(F)c2)C(=O)N2C[C@@H](C)C[C@H]2C(=O)NC2(CCC2)C(=O)N(C)[C@@H](C2CCCC2)C(=O)N1C [PP2002] | 15.7 | –
10 | CCO[C@@H]1C[C@H]2C(=O)NC3(CCC3)C(=O)N(C)[C@@H](C3CCCC3)C(=O)N(C)[C@H](C(=O)N(C)CC)CC(=O)N(C)[C@@H](C(C)C)C(=O)N[C@@H]([C@@H](C)CC)C(=O)N(C)CC(=O)N(C)[C@H]3C/C=C\CCN(C3=O)[C@@H](Cc3ccc(C(F)(F)F)cc3)C(=O)N(C)CC(=O)N[C@@H](CCc3ccc(C(F)(F)F)c(OC)c3)C(=O)N2C1 [PP2019] | 4.5 | –
11 | CCCN(C)C(=O)[C@@H]1CC(=O)N(C)[C@@H](CCOC)C(=O)N[C@@H]([C@@H](C)CC)C(=O)N(C)CC(=O)N(C)[C@H]2C/C=C\CCN(C2=O)[C@@H](Cc2ccc(C(F)(F)F)cc2)C(=O)N(C)CC(=O)N[C@@H](CCc2cc(F)c(C(F)(F)F)c(F)c2)C(=O)N2C[C@H](OCC)C[C@H]2C(=O)NC2(CC(C)(C)C2)C(=O)N(C)[C@@H](C2CCCC2)C(=O)N1C [PP2033] | 11.8 | –
12 | C#CCN1CC(=O)N(C)[C@H]2C/C=C\CCN(C2=O)[C@@H](Cc2ccc(C)cc2)C(=O)N(C)CC(=O)N[C@@H](CCc2ccc(C(F)(F)F)c(OC)c2)C(=O)N2C[C@H](OCC)C[C@H]2C(=O)NC2(CC(C)(C)C2)C(=O)N(C)[C@@H](C2CCCC2)C(=O)N(C)[C@H](C(=O)N(C)C)CC(=O)N(C)[C@@H](CC(C)C)C(=O)N[C@@H]([C@@H](C)CC)C1=O [PP2060] | 7.4 | –
13 | CCC[C@H]1C(=O)N[C@@H]([C@@H](C)CC)C(=O)N(C)CC(=O)N(C)[C@H]2C/C=C\CCN(C2=O)[C@@H](Cc2ccc(C)cc2)C(=O)N(C)CC(=O)N[C@@H](CCc2ccc(Cl)c(OC)c2)C(=O)N2C[C@H](OCC)C[C@H]2C(=O)NC2(CC(C)(C)C2)C(=O)N(C)[C@@H](C(CC)CC)C(=O)N(C)[C@H](C(=O)N(C)C)CC(=O)N1C [PP2791] | 89.8 | HRAS /KRAS (HRAS wild-type protein; [3]): A (a compound having 10 or more and less than 20 is denoted as A)
14 | CCO[C@@H]1C[C@H]2C(=O)NC3(CC(C)(C)C3)C(=O)N(C)[C@@H](C3CCCC3)C(=O)N(C)[C@H](C(=O)N(C)C)CC(=O)N(C)[C@H]3CCCCCCc4ccc(cc4)C[C@@H](C(=O)N(C)CC(=O)N[C@@H](CCc4ccc(C(F)(F)F)c(OC)c4)C(=O)N2C1)N1CC/C=C\C[C@@H](C1=O)N(C)C(=O)CN(C1CC1)C(=O)[C@H]([C@@H](C)CC)NC3=O [PP3070] | 1.4 | HRAS /KRAS (HRAS wild-type protein; [3]): B (a compound having 3 or more and less than 10 is denoted as B)
15 | CCC[C@H]1C(=O)N[C@@H]([C@@H](C)CC)C(=O)N(C)CC(=O)N(C)[C@H]2C/C=C\CCN(C2=O)[C@@H](Cc2ccc(C(F)(F)F)cc2)C(=O)N(C)CC(=O)N[C@@H](CCc2ccc(C(F)(F)F)c(OC)c2)C(=O)N2C[C@H](OCC)C[C@H]2C(=O)N(C)C2(CCC2)C(=O)N(C)[C@@H](C2CCCC2)C(=O)N(C)[C@H](C(=O)N2CCCCC2)CC(=O)N1C [PP3103] | 21.5 | HRAS /KRAS (HRAS wild-type protein; [3]): A (a compound having 10 or more and less than 20 is denoted as A)
16 | CC[C@H](C)[C@@H]1NC(=O)[C@H](CC(C)C)N(C)C(=O)CSC[C@H](C(=O)N(C)C)N(C)C(=O)[C@H](C2CCCC2)N(C)C(=O)C2(CCCC2)NC(=O)[C@@H]2CCCN2C(=O)[C@H](CCc2cc(F)c(C(F)(F)F)c(F)c2)NC(=O)CN(C)C(=O)[C@H](Cc2ccc(C(F)(F)F)cc2)N2CC/C=C\C[C@@H](C2=O)N(C)C(=O)CN(C)C1=O [PP3109] | 3420 | –
17 | CCO[C@@H]1C[C@H]2C(=O)NC3(CC(C)(C)C3)C(=O)N(C)[C@@H](C3CCCC3)C(=O)N(C)[C@H](C(=O)N(C)CC)CC(=O)N(C)[C@@H]([C@@H](C)OC)C(=O)N[C@@H]([C@@H](C)CC)C(=O)N(C)CC(=O)N(C)[C@H]3C/C=C\CCN(C3=O)[C@@H](Cc3ccc(C(F)(F)F)cc3)C(=O)N(C)CC(=O)N[C@@H](CCc3ccc(C(F)(F)F)c(Cl)c3)C(=O)N2C1 [PP3162] | 9.6 | –
